According to paper PMC10754118, “Lipophilic Nucleoside Triphosphate Prodrugs of Anti‐HIV Active Nucleoside Analogs as Potential Antiviral Compounds” (Advanced Science, 2023):
Like-named read-outs stand apart in the source and are kept apart here.

Columns and labels:
HIV‐1 [HE] = assay: Anti-HIV activity, HIV-1 in wild-type CEM/0 cells; format: cell-based; conditions: Human immunodeficiency virus 1, CCRF-CEM, read-out: Antiviral activity CEM/0 HIV‐1 [HE] EC50
HIV‐2 [ROD] = assay: Anti-HIV activity, HIV-2 in wild-type CEM/0 cells; format: cell-based; conditions: Human immunodeficiency virus 2, CCRF-CEM, read-out: Antiviral activity CEM/0 HIV‐2 [ROD] EC50
Protocol: (§1) Part 9. Anti-HIV activity assay.
(§2) The produce was used as previously reported. 5 Inhibition of HIV-1(IIIB)- and HIV-2(ROD)-induced cytopathogenicity in wild-type CEM/0 and thymidine kinase-deficient CEM/TK– cell cultures was measured in […]
(§3) containing appropriate dilutions of the test compounds. After 4−5 days of incubation at 37 °C in a CO2-controlled humidified atmosphere, CEM giant (syncytium) cell formation was examined microscopically. The […]
(§4) giant cell formation by 50%.
(§5) Part 10. Primer-extension assays. […]

HIV‐2 [ROD)] = assay: Anti-HIV activity, HIV-2 in thymidine kinase-deficient CEM/TK^− cells; format: cell-based
Protocol: as §1, §2, §3, §4, §5

in vitro = conditions: human
Protocol: All TriPPPro‐compounds 10 and 20, as well as their parent nucleosides and the corresponding NTPs, were evaluated for their antiviral activity (expressed as EC50 values) against HIV‐1 (wild‐type CEM/0 cells) and HIV‐2 (wild‐type CEM/0 cells and thymidine kinase‐deficient (CEM/TK^−) cells) with concomitant determination of cytotoxicity in the same cell line (Table 3 ).

[1] = Chemical hydrolysis in phosphate buffer saline (PBS, pH 7.3); format: physicochemical; conditions: PBS pH 7.3, 37 °C, read-out: PBS pH 7.3 t 1/2 (converted)
Protocol: Part 4. Chemical Hydrolysis of TriPPPro-compounds 10 and 20.
Second prepare 1.9 mM hydrolysis […]
Then, aliquots of 50 µL human

[2] = wild-type CEM/0 cells, mean ±SD n = 2–3
[3] = Human immunodeficiency virus 2, CEM-TK(-), thymidine kinase-deficient CEM/TK^− cells, mean ±SD n = 2–3; read-out: Antiviral activity CEM/TK^− HIV‐2 [ROD)] EC50
[4] = CEM/0 cells (wild-type CD4+ T-cells)
[5] = Human immunodeficiency virus 2, CEM-TK(-), read-out: Antiviral activity CEM/TK^− HIV‐2 [ROD)] EC50

SMILES | EC50 (HIV‐1 [HE]; [2]) | EC50 (HIV‐2 [ROD]; [2]) | EC50 (HIV‐2 [ROD)]; [3]) | EC50 (HIV‐2 [ROD)]; thymidine kinase-deficient CEM/TK^− cells, mean ±SD n = 2–3; read-out: Antiviral activity CEM/TK^− HIV‐2 [ROD)] EC50) | CC50 (in vitro; [4]) | CC50 (in vitro) | half-life at 1.9 mM [1] | EC50 (HIV‐1 [HE]) | EC50 (HIV‐2 [ROD]) | EC50 (HIV‐2 [ROD)]; [5])
Cc1cn([C@H]2C[C@H](N=[N+]=[N-])[C@@H](CO)O2)c(=O)[nH]c1=O [1b (AZT), AZT, reference compound] | 14 ± 8.5 nM | 3.4 ± 2.1 nM | > 150000 nM | > 100000 nM | > 100000 nM | – | – | – | – | –
Nc1nc(=O)n([C@@H]2CS[C@H](CO)O2)cc1F [1c (FTC), FTC, reference compound] | 8.6 ± 5.7 nM | 20 ± 1 nM | 10 ± 10 nM | – | > 100000 nM | – | – | – | – | –
O=c1[nH]c(=O)n([C@H]2C[C@H](F)[C@@H](CO)O2)cc1Cl [1d (FddClU), FddClU, reference compound] | 820 ± 330 nM | 1950 ± 2630 nM | > 100000 nM | – | > 100000 nM | – | – | – | – | –
O=c1ccn([C@H]2C[C@H](F)[C@@H](CO)O2)c(=O)[nH]1 [1e (FddU), FddU, reference compound] | 210 ± 20 nM | 150 ± 17 nM | > 100000 nM | – | > 100000 nM | – | – | – | – | –
Cc1cn([C@H]2C[C@H](F)[C@@H](CO)O2)c(=O)[nH]c1=O [1f (FLT), FLT, reference compound] | 2.5 ± 2.9 nM | 4.3 ± 1.7 nM | > 100000 nM | – | > 100000 nM | – | – | – | – | –
O=c1[nH]c(=O)n([C@H]2C[C@H](O)[C@@H](CO)O2)cc1/C=C/Br [1g (BVDU), BVDU, reference compound] | > 250000 nM | > 250000 nM | > 250000 nM | – | – | 207000 ± 60000 nM | – | – | – | –
Nc1nc(NC2CC2)c2ncn([C@H]3C=C[C@@H](CO)C3)c2n1 [1h (ABC), abacavir, reference compound] | – | – | – | – | > 100000 nM | – | – | – | – | –
CCCCCCCCCCCCCCCCCCOP(=O)(OCC(CC)CCCC)OP(=O)(O)OP(=O)(O)OC[C@H]1O[C@@H](n2cc(C)c(=O)[nH]c2=O)C[C@@H]1N=[N+]=[N-] (stereo partly drawn) [10bw] | 160 ± 190 nM | 54 ± 28 nM | 6100 ± 3000 nM | – | 45600 nM | – | > 83.3 days | – | – | –
CCCCCCCCCCCCCCCCCCOP(=O)(OCC(CC)CCCC)OP(=O)(O)OP(=O)(O)OC[C@@H]1O[C@H](n2cc(F)c(N)nc2=O)CS1 (stereo partly drawn) [10cw] | 210 ± 60 nM | 180 ± 100 nM | 120 ± 100 nM | – | 64000 ± 23600 nM | – | > 83.3 days | – | – | –
CCCCCCCCCCCCCCCCCCP(=O)(OCCCC)OP(=O)(O)OP(=O)(O)OC[C@@H]1O[C@H](n2cc(F)c(N)nc2=O)CS1 (stereo partly drawn) [10cx] | – | – | – | – | 46000 nM | – | > 83.3 days | 49 ± 45 nM | 94 ± 23 nM | 11 nM
CCCCCCCCCCCCCCCCCCP(=O)(OCc1ccc(OC(=O)CCCC)cc1)OP(=O)(O)OP(=O)(O)OC[C@@H]1O[C@H](n2cc(F)c(N)nc2=O)CS1 (stereo partly drawn) [10cz] | 160 ± 60 nM | 140 ± 40 nM | 20 ± 21 nM | – | 66000 ± 35600 nM | – | > 62.5 days | – | – | –
CCCCCCCCCCCCCCCCCCOP(=O)(OCC(CC)CCCC)OP(=O)(O)OP(=O)(O)OC[C@H]1O[C@@H](n2cc(Cl)c(=O)[nH]c2=O)C[C@@H]1F (stereo partly drawn) [10dw] | 1200 ± 50 nM | 2200 ± 1240 nM | > 20000 nM | – | 56100 ± 15800 nM | – | > 83.3 days | – | – | –
CCCCCCCCCCCCCCCCCCP(=O)(OCCCC)OP(=O)(O)OP(=O)(O)OC[C@H]1O[C@@H](n2cc(Cl)c(=O)[nH]c2=O)C[C@@H]1F (stereo partly drawn) [10dx] | – | – | – | – | 54400 ± 15900 nM | – | > 83.3 days | 2590 ± 710 nM | 2230 ± 1200 nM | 3210 ± 1120 nM
CCCCCCCCCCCCCCCCCCOP(=O)(OCC(CC)CCCC)OP(=O)(O)OP(=O)(O)OC[C@H]1O[C@@H](n2cc(C)c(=O)[nH]c2=O)C[C@@H]1F (stereo partly drawn) [10ew] | 1500 ± 1390 nM | 860 ± 190 nM | 280 ± 120 nM | – | 52600 ± 10900 nM | – | > 83.3 days | – | – | –
CCCCCCCCCCCCCCCCCCP(=O)(OCCCC)OP(=O)(O)OP(=O)(O)OC[C@H]1O[C@@H](n2cc(C)c(=O)[nH]c2=O)C[C@@H]1F (stereo partly drawn) [10ex] | – | – | – | – | 43600 nM | – | 6.17 days | 390 ± 130 nM | 520 ± 670 nM | 1010 ± 1140 nM
CCCCCCCCCCCCCCCCCCOP(=O)(OCc1ccc(OC(=O)CCCC)cc1)OP(=O)(O)OP(=O)(O)OC[C@H]1O[C@@H](n2cc(C)c(=O)[nH]c2=O)C[C@@H]1F (stereo partly drawn) [10ey] | 300 ± 300 nM | 780 ± 300 nM | 1580 ± 1970 nM | – | 54100 ± 15800 nM | – | > 16.7 days | – | – | –
CCCCCCCCCCCCCCCCCCP(=O)(OCc1ccc(OC(=O)CCCC)cc1)OP(=O)(O)OP(=O)(O)OC[C@H]1O[C@@H](n2cc(C)c(=O)[nH]c2=O)C[C@@H]1F (stereo partly drawn) [10ez] | 460 ± 360 nM | 460 ± 400 nM | 1830 ± 1650 nM | – | 45300 ± 16700 nM | – | 2.12 days | – | – | –
CCCCCCCCCCCCCCCCCCOP(=O)(OCC(CC)CCCC)OP(=O)(O)OP(=O)(O)OC[C@H]1O[C@@H](n2ccc(=O)[nH]c2=O)C[C@@H]1F (stereo partly drawn) [10fw] | 370 ± 470 nM | 140 ± 62 nM | 110 ± 140 nM | – | 63500 ± 27200 nM | – | > 83.3 days | – | – | –
CCCCCCCCCCCCCCCCCCP(=O)(OCCCC)OP(=O)(O)OP(=O)(O)OC[C@H]1O[C@@H](n2ccc(=O)[nH]c2=O)C[C@@H]1F (stereo partly drawn) [10fx] | – | – | – | – | 67300 ± 33800 nM | – | > 83.3 days | 41 ± 44 nM | 29 ± 7.1 nM | 150 ± 60 nM
CCCCCCCCCCCCCCCCCCOP(=O)(OCc1ccc(OC(=O)CCCC)cc1)OP(=O)(O)OP(=O)(O)OC[C@H]1O[C@@H](n2ccc(=O)[nH]c2=O)C[C@@H]1F (stereo partly drawn) [10fy] | 26 ± 28 nM | 14 ± 16 nM | 360 ± 240 nM | – | 43300 ± 5100 nM | – | 15 days | – | – | –
CCCCCCCCCCCCCCCCCCP(=O)(OCc1ccc(OC(=O)CCCC)cc1)OP(=O)(O)OP(=O)(O)OC[C@H]1O[C@@H](n2ccc(=O)[nH]c2=O)C[C@@H]1F (stereo partly drawn) [10fz] | 64 ± 80 nM | 39 ± 33 nM | 160 ± 40 nM | – | 42000 ± 10600 nM | – | 8.46 days | – | – | –
CCCCCCCCCCCCCCCCCCOP(=O)(OCC(CC)CCCC)OP(=O)(O)OP(=O)(O)OC[C@H]1O[C@@H](n2cc(/C=C/Br)c(=O)[nH]c2=O)C[C@@H]1O (stereo partly drawn) [10gw] | > 10000 nM | 4210 ± 370 nM | 11400 ± 4240 nM | – | 60300 ± 20700 nM | – | > 83.3 days | – | – | –
CCCCCCCCCCCCCCCCCCP(=O)(OCCCC)OP(=O)(O)OP(=O)(O)OC[C@H]1O[C@@H](n2cc(/C=C/Br)c(=O)[nH]c2=O)C[C@@H]1O (stereo partly drawn) [10gx] | – | – | – | – | 51500 ± 17000 nM | – | > 41.7 days | > 10000 nM | > 10000 nM | 24000 ± 2720 nM
CCCCCCCCCCCCCCCCCCP(=O)(OCc1ccc(OC(=O)CCCC)cc1)OP(=O)(O)OP(=O)(O)OC[C@H]1O[C@@H](n2cc(/C=C/Br)c(=O)[nH]c2=O)C[C@@H]1O (stereo partly drawn) [10gz] | 7580 ± 2200 nM | 8010 ± 2810 nM | 11200 ± 4990 nM | – | 43900 ± 8300 nM | – | > 62.5 days | – | – | –
CCCCCCCCCCCCCCCCCCOP(=O)(OCC(CC)CCCC)OP(=O)(O)OP(=O)(O)OC[C@@H]1C=C[C@H](n2cnc3c(NC4CC4)nc(N)nc32)C1 (stereo partly drawn) [10hw] | 100 ± 30 nM | 180 ± 110 nM | 26 ± 35 nM | – | > 100000 nM | – | 7.54 days | – | – | –
Cc1cn([C@H]2C[C@H](N=[N+]=[N-])[C@@H](CO[P@](=O)(O)O[P@](=O)(O)OP(=O)(O)O)O2)c(=O)[nH]c1=O [AZTTP, reference compound] | – | – | – | – | > 100000 nM | – | – | 6.9 ± 8.7 nM | 5.5 ± 4 nM | 57900 ± 10900 nM
